Measurements taken from patent publication US7078499B2, “Nucleotide analogues comprising a reporter moiety and a polymerase enzyme blocking moiety” (GE Healthcare UK Limited, priority 2000, dated 2006).

Assays:
Assay type in all cases: biochemical
Set-up in all cases: key to result of incorporation (termination / further chain extension): T: Incorporation results in termination; E: Incorporation permits further chain extension; T/E: Predominant product is primer extended by one base, but evidence of some further extension also observed
[1] = system: deltaTts D DNA polymerase; test: Thermostable DNA polymerase primer extension, delta TTSD; conditions: DNA template, 45° C. for 20–40 minutes; for primer extended by at least one base within assay time (grade): TTP replaced entirely by test compound
Protocol: (§1) DNA polymerase assays were performed using Sequence 1 as primer and Sequence 2 as template. • Sequence 1 5′[Cy3]TAACTCATTAACAGGATC 3′ • Sequence 2 5′AT TCGCGGTATTCTGGTATGAAGCTTTTAGATCCTGTTAATGAGTTA GTA3′
(§2) The template (Sequence 2) was designed such that the base (underlined) immediately adjacent to the 3′ end of the hybridised primer is complementary to the nucleotide test compound. Nucleotide test compounds were compounds (6) (4′-C-(glycylaminomethyl)thymidine triphosphate), (8) (4′-C-(N-trifluoroacetyaminomethyl)thymidine triphosphate) and (9) (4′-C-(aminomethyl)thymidine triphosphate) as described above.
(§3) Primer extension reactions were performed using the above primers in the presence of 40 to 80 μM of nucleotide triphosphates. Positive control reactions contained all four native nucleotide triphosphates. For the other reactions the TTP was replaced with either a 2:1 ratio of […] for the terminator control, or entirely by the test compound The enzymes were used at a final concentration of 0.175 units/μl and a magnesium ion concentration of 2.5 mM in buffers supplied by the manufacturer. The primer and template concentrations were 0.5 pmol/μl and 2 pmol/μl respectively.
(§4) Extension reactions with thermophilic enzymes were performed by initially denaturing the fully assembled reactions at 70° C. for 5 min. followed by 45° C. for 20–40 minutes. The following enzymes were used: Taq DNA polymerase (Taq); Thermosequenase (TS); Thermosequenase II (TSII); Thermosequenase E (TSE), Tfl DNA polymerase (Tfl); Tth DNA polymerase (Tth), deltaTts DNA polymerase (deltaTts), deltaTts D DNA polymerase (dettaTTSD) (all from APBiotech); Pfu DNA polymerase (Pfu) (Stratagene Ltd); Vent™ DNA polymerase (Vent) (New England Biolabs).
(§5) The reactions were stopped by adding a 0.5 volume aliquot of 80% formamide containing 0.1% (w/v) bromophenol blue and 0.1% (w/v) cresol blue. The reaction products were separated by denaturing gel electrophoresis at a constant power of 45 W on 16% polyacrylamide gels containing 50% urea.
(§6) Gels were scanned for Cy3 fluorescence on a Molecular Dynamics Fluorimager and the data analysed using Molecular Dynamics ImageQuant 5 software.
(§7) The incorporation of a test nucleotide triphosphate results in the appearance on a polyacrylamide gel of a single band corresponding to a single base extension product. If, however, the enzyme adds additional bases then further bands would be observed that corresponded to either the full-length product or positions of other complementary bases in the template.

Thermosequenase = test: Thermostable DNA polymerase primer extension, TS; conditions: DNA template, 45° C. for 20–40 minutes; for primer extended by at least one base within assay time (grade): TTP replaced entirely by test compound
Protocol: as §1, §2, §3, §4, §5, §6, §7

Tfl DNA polymerase = target: T1, Tfl DNA polymerase (Thermus thermophilus, UniProt P30313); test: Thermostable DNA polymerase primer extension, Tfl; conditions: DNA template, 45° C. for 20–40 minutes; for primer extended by at least one base within assay time (grade): TTP replaced entirely by test compound
T1 construct: purchased APBiotech
Protocol: as §1, §2, §3, §4, §5, §6, §7

T4 DNA polymerase = target: T2, T4 DNA polymerase (Enterobacteria phage T4, UniProt P04415); test: Mesophilic DNA polymerase primer extension, T4; conditions: DNA template, 37° C. for 20–40 minutes; for primer extended by at least one base within assay time (grade): TTP replaced entirely by test compound
T2 construct: purchased AP Biotech
T2 sequence (P04415 1-898): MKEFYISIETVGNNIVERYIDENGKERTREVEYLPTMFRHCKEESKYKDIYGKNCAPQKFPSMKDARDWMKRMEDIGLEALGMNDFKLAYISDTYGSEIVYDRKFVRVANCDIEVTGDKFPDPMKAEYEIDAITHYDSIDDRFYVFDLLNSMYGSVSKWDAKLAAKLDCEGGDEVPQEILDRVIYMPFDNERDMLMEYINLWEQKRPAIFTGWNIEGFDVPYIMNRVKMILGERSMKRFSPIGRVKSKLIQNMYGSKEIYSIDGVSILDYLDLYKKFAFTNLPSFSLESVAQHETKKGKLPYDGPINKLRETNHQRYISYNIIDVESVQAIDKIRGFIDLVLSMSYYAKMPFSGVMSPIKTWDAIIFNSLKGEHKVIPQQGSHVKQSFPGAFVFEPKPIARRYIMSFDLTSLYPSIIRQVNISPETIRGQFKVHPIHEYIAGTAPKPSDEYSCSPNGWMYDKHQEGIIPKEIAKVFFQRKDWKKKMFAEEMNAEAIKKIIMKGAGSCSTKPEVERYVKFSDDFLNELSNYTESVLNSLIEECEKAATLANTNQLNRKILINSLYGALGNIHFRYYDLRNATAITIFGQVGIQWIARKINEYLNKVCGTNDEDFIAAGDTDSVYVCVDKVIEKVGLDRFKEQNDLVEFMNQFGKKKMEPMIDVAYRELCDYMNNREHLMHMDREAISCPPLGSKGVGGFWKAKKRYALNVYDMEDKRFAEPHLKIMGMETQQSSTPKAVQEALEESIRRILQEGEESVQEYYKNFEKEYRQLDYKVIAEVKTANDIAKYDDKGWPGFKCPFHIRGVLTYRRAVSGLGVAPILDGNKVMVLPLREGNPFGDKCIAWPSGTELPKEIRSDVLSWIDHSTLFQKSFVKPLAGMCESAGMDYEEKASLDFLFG
Protocol: as §1, §2, §3
Extension reactions preformed with mesophilic polymerases were carried out by mixing all the components of the reaction except the enzyme and heating to 70° C. for 5 min. After the reactions had cooled to room temperature 0.175 units of the enzyme were added and the reactions heated to 37° C. for 20–40 minutes. The following enzymes were used: T7 DNA polymerase (T7); Sequenase 2™ (Seq); Klenow fragment of DNA polymerase 1 (Klen); phi-29 DNA polymerase (Phi-29); T4 DNA polymerase (T4) (all from AP Biotech) and Bst DNA polymerase (Bst) (Cambio Ltd).
as §5, §6, §7

T1 sequence (P30313 whole entry): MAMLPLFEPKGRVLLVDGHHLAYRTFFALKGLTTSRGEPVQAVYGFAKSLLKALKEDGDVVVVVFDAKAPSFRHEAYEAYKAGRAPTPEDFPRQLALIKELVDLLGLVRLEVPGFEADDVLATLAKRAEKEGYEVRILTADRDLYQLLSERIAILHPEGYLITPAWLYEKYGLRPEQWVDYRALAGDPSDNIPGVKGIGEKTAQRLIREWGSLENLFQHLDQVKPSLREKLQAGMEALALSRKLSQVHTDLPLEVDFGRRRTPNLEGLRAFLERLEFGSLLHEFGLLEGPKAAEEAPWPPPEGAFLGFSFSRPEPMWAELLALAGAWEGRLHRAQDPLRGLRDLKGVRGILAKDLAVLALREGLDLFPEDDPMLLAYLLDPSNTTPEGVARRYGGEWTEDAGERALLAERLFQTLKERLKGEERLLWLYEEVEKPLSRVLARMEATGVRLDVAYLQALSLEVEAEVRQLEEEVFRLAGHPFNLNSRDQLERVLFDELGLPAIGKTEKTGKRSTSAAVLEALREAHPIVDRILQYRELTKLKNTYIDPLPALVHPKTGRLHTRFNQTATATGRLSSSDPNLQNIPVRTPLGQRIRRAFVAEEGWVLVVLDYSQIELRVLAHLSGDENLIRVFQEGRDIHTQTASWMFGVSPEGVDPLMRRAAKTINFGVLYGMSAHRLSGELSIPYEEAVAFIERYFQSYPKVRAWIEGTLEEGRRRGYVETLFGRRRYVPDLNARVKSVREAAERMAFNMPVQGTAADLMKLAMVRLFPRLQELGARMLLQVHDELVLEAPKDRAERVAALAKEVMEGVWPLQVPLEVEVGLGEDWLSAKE

Compound | result of incorporation (termination / further chain extension) [1] | primer extended by at least one base within assay time (grade) [1] | result of incorporation (termination / further chain extension) (Thermosequenase) | primer extended by at least one base within assay time (grade) (Thermosequenase) | result of incorporation (termination / further chain extension) (Tfl DNA polymerase) | primer extended by at least one base within assay time (grade) (Tfl DNA polymerase) | result of incorporation (termination / further chain extension) (T4 DNA polymerase) | primer extended by at least one base within assay time (grade) (T4 DNA polymerase)
Cc1cn([C@H]2C[C@H](O)[C@@](CNC(=O)C(F)(F)F)(COP(=O)(O)OP(=O)(O)OP(=O)(O)O)O2)c(=O)[nH]c1=O [compound (8), 4′-C-(N-trifluoroacetylaminomethyl)thymidine triphosphate] | T/E | ++ (up to 75% of primer extended by at least one base within assay time) | T | + (up to 50% of primer extended by at least one base within assay time) | T | +/− (up to 25% of primer extended by at least one base within assay time) | T | + (up to 50% of primer extended by at least one base within assay time)
4′-C-(Aminomethyl)thymidine triphosphate [compound (9)] | T/E | ++ (up to 75% of primer extended by at least one base within assay time) | T | + (up to 50% of primer extended by at least one base within assay time) | T | +/− (up to 25% of primer extended by at least one base within assay time) | T | + (up to 50% of primer extended by at least one base within assay time)
4′-C-(Glycylaminomethyl)thymidine triphosphate [compound (6)] | T | ++ (up to 75% of primer extended by at least one base within assay time) | T | + (up to 50% of primer extended by at least one base within assay time) | T | +/− (up to 25% of primer extended by at least one base within assay time) | T | + (up to 50% of primer extended by at least one base within assay time)
